Test results taken from patent US11648291B2, “Method of using PRD, PRD-S TAD, ZF7 peptide or mixture thereof to inhibit cellular response to inflammatory stimuli or treat cytokine-storm-mediated diseases” (GUANGZHOU MEDICAL UNIVERSITY, priority 2020, dated 2023).
Where “and” joins values, the source holds several entries; their conditions need not be identical. Equal entries are not always repeated.

How the values were obtained:
[1] = tested on: cellular response to TNFα, IL-1β, and LPS; assay: Cellular response to TNFα, IL-1β and LPS, data not shown (control peptide, biotin-tagged peptides); format: cell-based; settings: for effect of biotin on the activity of the peptide: biotin attached to the N-terminus
Excerpt: (§1) In order to test the hypotheses that the PRD and TAD peptides inhibit the response to pro-inflammatory stimuli such as TNFα, IL-1β, and LPS, the peptides were synthesized and transfected into HCT-8 cells using a protein transfection reagent (Pierce). […] Next, we tested whether they can inhibit the expression of genes induced by TNFα, IL-1β, and LPS in human PBMCs. Both peptides indeed inhibited the expression of IL-6, IL-1β, IL-8, and arginase induced by TNFα, IL-1β, or LPS (FIG. 4B). Since both peptides are highly hydrophobic, we tested whether they can penetrate cells. Indeed, both peptides inhibited TNFα- or IL-1β-induced IL-8 expression with or without the transfection agent in HCT-8 cells, although it took more peptides to produce the similar level of inhibition (FIG. 4C, left panel). […] We tested a random peptide sequence ([…], SEQ ID NO:41) as a control and it had no effect on the cellular response to TNFα, IL-1β, and LPS (data not shown).
(§2) Recent findings identified the ZF7 (zinc finger domain 7) as the key domain for A20 to suppress inflammation (FIG. 6A). We hypothesized that ZF7 peptide inhibit the TNFα response just as PRD and TAD peptides do. […] Next, we tested whether ZF7 inhibits LPS response in vivo. We injected mice with a high dose of LPS (200 μg/mouse) or LPS+ZF7 (200 μg/mouse) and collected the sera after 3 hours. […] In order to tract ZF7 peptide inside cells, biotin was attached to the N-terminus to ZF7 peptide.

[2] = tested on: TNFα-induced IL-8 expression in HCT-8 cells; assay: TNFα/IL-1β-induced IL-8 expression in HCT-8 cells (IL-8 ELISA); format: cell-based, human; settings: for expression of IL-8 by the peptides themselves: no stimulus; for TNFα- or IL-1β-induced IL-8 expression: HCT-8, with or without the transfection agent, 1 μg/ml, TNFα 2 ng/ml or IL-1β 1 ng/ml, more peptide needed without transfection
Description: The indicated amount of the peptides was transfected into HCT-8 as described in the method. The transfected cells were stimulated with TNFα (4 hours after peptide transfection) for 24 hours. IL-8 expression was measured by ELISA. The results are the representative of 3 similar experiments.
(§3) HCT-8 cells were transfected with the peptides or just treated with them without transfection (1 μg/ml) and stimulated with TNFα (2 ng/ml) or IL-1-β (1 ng/ml) for 24 hours. PMBCs were treated with the indicated amount of each peptide (no transfection) and stimulated with TNFα (2 ng/ml) for 24 hours. IL-8 expression was measured by ELISA. The results are the representative of 2 similar experiments.
HCT-8 cells were stimulated with TNFα (2 ng/ml) with the indicated amount of PRD-S peptide for 24 hours. IL-8 expression was measured by ELISA.
Human PBMCs and THP-1 cells were cultured in RPMI-1640 while FLS and HCT-8 cells in DMEM, supplemented with 10% fetal bovine serum and maintained in a humidified incubator at 37° C. with 5% CO2 in air.
(§4) IL-8 LEISA kit was purchased from ThermoFisher and ELISA was performed according to the manufacturer's instruction.
Peptides were transfected into the cells using Pierce Protein Transfection Reagent Kit™ according to the manufacturer's instruction. The Pierce Reagent in methanol was pipetted into a tube and the solvent was evaporated in the hood. Peptides were diluted in PBS and mixed with the dried Pierce Reagent. The peptides/Reagent complex was added to the cells in serum-free medium. After 4 hours, the medium containing serum was added to the cells and the cells were used for experiments.
as §1
Based on the sequence analysis of the YAP1 mutants (FIG. 2A), we tested whether the shortest PRD peptide (M1) inhibits the TNFα response. We named this peptide as PRD-S(small).
as §2

[3] = tested on: gene expression induced by TNFα, LPS, or IL-1β in human PBMCs; assay: Gene expression induced by TNFα, LPS or IL-1β in human PBMCs (ELISA, LegendPlex); format: cell-based; settings: transfected PRD 1 μg or TAD 0.5 μg, TNFα 2 ng/ml, LPS 50 ng/ml or IL-1β 2 ng/ml, 24 hours
Description: PBMCs were transfected with either PRD (1 μg) or TAD (0.5 μg) as described in the method. The transfected cells were stimulated with TNFα (2 ng/ml), LPS (50 ng/ml), or IL-1β (2 ng/ml), 4 hours after peptide transfection, for 24 hours. IL-8 expression was measured by ELISA and IL-6, IL-1β, and arginase levels were measured by flow cytometry using LegendPlex as described in the method. The results are the representative of 3 similar experiments.
as §3, §4
All steps of PBMC preparation were carried out at room temperature. The blood from the same donor was pooled and mixed 1:1 with pre-warmed (room temperature) 1×PBS (without Ca^2+ or Mg^2+). […]
To simultaneously quantify the concentration of the soluble inflammatory cytokines and chemokines, the cell culture supernatant was analyzed by using the bead-based multiplex LEGENDplex™ (Biolegend) according to the manufacturer's instruction. […]

[4] = tested on: TNFα response in HCT-8 cells (C, A20 KD, YAP KD); assay: TNFα response (IL-8 ELISA) in control, A20 KD and YAP KD HCT-8 cells; format: cell-based, human; settings: TNFα 2 ng/ml overnight
Description: HCT-8 cells (C, A20 KD, YAP KD) were treated with PRD, TAD, or ZF7 peptide (1 μg/ml) and stimulated with TNFα (2 ng/ml) overnight. IL-8 levels in the medium were measured by ELISA. The results are the representative of 2 similar experiments. IL-8 LEISA kit was purchased from ThermoFisher and ELISA was performed according to the manufacturer's instruction. Next, we investigated how PRD, TAD, and ZF7 peptides inhibit the TNFα response. The PRD, TAD, and ZF7 peptides have the same effect as either YAP9 OE (over-expression) or A20 OE, respectively. Since YAP9 OE or A20 OE is futile in the absence of the other (FIGS. 5B and 5C), PRD or TAD peptide should also require the presence of A20 while ZF7 peptide the presence of YAP9. Indeed, our data supported this notion. When both YAP9 and A20 are present (C), all 3 peptides inhibited the TNFα response.

[5] = tested on: LPS response in mice; assay: LPS response in mice: serum cytokines and chemokines by LegendPlex (Table 1); format: in vivo, C57BL/6 mice
Description: as §2
Table.1 ZF7 peptide inhibits the LPS response in mice. C57BL/6 mice (n=2) were injected intraperitoneally with LPS (200 μg/mouse) or LPS (200 μg/mouse)+ZF7 peptide (200 μg/mouse) and the sera were collected after 3 hours. The cytokines and chemokines in the sera were measured by LegendPlex according to the manufacturer's instruction. The number represents pg/ml.

[6] = tested on: LPS-induced mortality; assay: LPS-induced mortality in mice; format: in vivo, mice (C57B/6); settings: mice n=5, LPS 200 μg + ZF7 300 μg i.p., observed 7 days; LPS control group 60% mortality
Description: Mice (8-week old, C57B/6, n=5) were injected with LPS (200 μg) or LPS (200 μg)+ZF7 (300 μg) in 200 μl PBS intraperitoneally.
Since ZF7 inhibited LPS-induced cytokine production in mice (Table 1), we next tested whether ZF7 peptide can protect mice from LPS-induced mortality.

[7] = HCT-8, peptides transfected, TNFα 24 hours, ELISA
[8] = control HCT-8 (both YAP9 and A20 present), peptide 1 μg/ml
[9] = serum 3 hours after i.p. LPS 200 μg/mouse + ZF7 200 μg/mouse, one line per mouse (n=2)

“ARNDCEQGHILKMFPSTWYV [random peptide sequence, reference compound]” was tested, and the “effect on the cellular response to TNFα, IL-1β, and LPS” value ([1]; control peptide) was “no effect”.
With “QPPGQGPPSGPGQPA (listed as Homo sapiens) [PRD-S]” the “TNFα-induced IL-8 expression” value ([2]; HCT-8, PRD-S without transfection, TNFα 2 ng/ml, 24 hours) was “inhibited TNFα-induced IL-8 expression in a dose-response manner”.
“GQPPSQPPQGQGPPSGPGQPAPAATQAAPQ (listed as Homo sapiens) [PRD]” was tested, and the “TNFα-induced IL-8 expression” value [2, 7] was “suppressed”, the “expression of IL-8 by the peptides themselves” value ([2]; HCT-8, peptides transfected) was “did not affect” and the “TNFα- or IL-1β-induced IL-8 expression” value ([2]; 24 hours) was “inhibited”. For the same sequence, the “expression of IL-6, IL-1β, IL-8, and arginase induced by TNFα, IL-1β, or LPS” value [3] was “inhibited”, the “TNFα response (IL-8)” value ([4]; A20 KD HCT-8, peptide 1 μg/ml) was “significantly less effective” and the “TNFα response (IL-8)” value ([4]; YAP KD HCT-8, peptide 1 μg/ml) was “retained their full inhibitory capacity”. The “TNFα response (IL-8)” value [4, 8] was “inhibited” and the “effect of biotin on the activity of the peptide” value (“effect of biotin” for short) [1] was “did not affect the activity”.
“PPKQRCRAPACDHFGNAKCNGYCNECYQFKQMYG (listed as Homo sapiens) [ZF7]” was tested, and the “TNFα response (IL-8 ELISA)” value ([2]; HCT-8, without transfection, TNFα 2 ng/ml overnight) was “significantly inhibited”, the “TNFα response (IL-8)” value ([4]; A20 KD HCT-8, peptide 1 μg/ml) was “retained its full inhibitory capacity” and the “TNFα response (IL-8)” value ([4]; YAP KD HCT-8, peptide 1 μg/ml) was “ineffective”. For the same sequence, the “TNFα response (IL-8)” value [4, 8] was “inhibited”, the “effect of biotin” value [1] was “did not affect the activity” and the “all the cytokines and chemokines measured in sera” value ([5]; mice, LPS 200 μg/mouse + ZF7 200 μg/mouse, sera after 3 hours) was “almost completely inhibited”. For the same sequence, the CCL2 [5, 9] was 238.13 pg/mL and 222.5 pg/mL, the GMCSF [5, 9] was under 18.38 pg/mL and the IFNβ [5, 9] was under 4.36 pg/mL. The IFNγ [5, 9] was <0.53 pg/mL and 87.58 pg/mL, the IL1-β [5, 9] was <4.33 pg/mL and 14.99 pg/mL and the IL-1α [5, 9] was <26.12 pg/mL and 57.24 pg/mL. The IL-6 [5, 9] was 4142.37 pg/mL and 1570.50 pg/mL, the IL-10 [5, 9] was <9.48 pg/mL and 65.31 pg/mL and the IL-17A [5, 9] was <4.47 pg/mL and 129.84 pg/mL. For the same sequence, the IL-27 [5, 9] was <8.56 pg/mL and 137.96 pg/mL, the TNFα [5, 9] was <4.10 pg/mL and 44.45 pg/mL and the LPS-induced mortality [6] was “no mortality”.
For “RQAMRININPSTANSPKCQE (listed as Homo sapiens) [TAD]”, the “relative potency in suppressing TNFα-induced IL-8 expression” value ([2]; HCT-8, peptides transfected) was “more potent than PRD peptide”, the “TNFα-induced IL-8 expression” value [2, 7] was “suppressed” and the “expression of IL-8 by the peptides themselves” value ([2]; HCT-8, peptides transfected) was “did not affect”. For the same sequence, the “TNFα- or IL-1β-induced IL-8 expression” value ([2]; 24 hours) was “inhibited”, the “expression of IL-6, IL-1β, IL-8, and arginase induced by TNFα, IL-1β, or LPS” value [3] was “inhibited” and the “TNFα response (IL-8)” value ([4]; A20 KD HCT-8, peptide 1 μg/ml) was “significantly less effective”. For the same sequence, the “TNFα response (IL-8)” value ([4]; YAP KD HCT-8, peptide 1 μg/ml) was “retained their full inhibitory capacity”, the “TNFα response (IL-8)” value [4, 8] was “inhibited” and the “effect of biotin” value [1] was “did not affect the activity”.
